Assay results as given in patent US12491145B2, “Synthesis and purification of cannabigerol and its application” (SYMRISE AG, priority 2019, dated 2025).

How the values were obtained:
B16 cells = assay type: cell-based, mouse
Experimental: (§1) Determination of Melanin Content and Cytotoxicity in B16 cells: To analyse the effect of cannabigerol (1) on melanogenesis, B16 melanoma cells were used as a cellular assay system to evaluate the depigmenting activity in cell cultures. B16 cells (4A5) were treated for 3 days with several doses of the compounds (cannabigerol (1) or kojic acid). The cells were washed with phosphate buffer saline (PBS) at the end of the treatment and dissolved in 1 N NaOH containing 10% DMSO for 1 h at 60° C. The absorbance at 405/490 nm was measured (TriStar LB 941 Berthold Technologies, GmbH & Co. KG) and the melanin content quantified with a reference standard of synthetic melanin (Sigma-Aldrich, St Louis, Mo., USA). Cytotoxicity was measured in parallel by the MTT assay to discard that melanin inhibition is not masked by cytotoxicity. Kojic acid was used as a positive control.

tyrosinase = biological target: T1, tyrosinase (Mus musculus, UniProt P11344); test: Measurement of tyrosinase activity in lysates of treated B16 cells (L-dopa, dopachrome formation, 475 nm); assay type: cell-based
T1 construct: host or cells: B16 mouse melanocytes (melanoma line)
T1 sequence (P11344 19-533): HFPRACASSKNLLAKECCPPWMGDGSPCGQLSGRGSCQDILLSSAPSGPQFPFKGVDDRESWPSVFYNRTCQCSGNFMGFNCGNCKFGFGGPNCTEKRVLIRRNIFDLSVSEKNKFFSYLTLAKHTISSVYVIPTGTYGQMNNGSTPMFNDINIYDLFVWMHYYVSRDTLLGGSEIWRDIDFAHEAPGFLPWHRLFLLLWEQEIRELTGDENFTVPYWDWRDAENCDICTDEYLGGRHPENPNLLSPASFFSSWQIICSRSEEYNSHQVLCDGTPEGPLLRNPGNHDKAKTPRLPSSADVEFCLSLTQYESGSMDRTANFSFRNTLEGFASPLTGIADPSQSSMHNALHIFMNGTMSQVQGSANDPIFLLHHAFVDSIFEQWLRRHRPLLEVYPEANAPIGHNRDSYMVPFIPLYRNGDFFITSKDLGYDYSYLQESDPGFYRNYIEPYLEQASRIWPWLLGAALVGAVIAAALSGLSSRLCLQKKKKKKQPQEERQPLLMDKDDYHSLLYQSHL
Experimental: (§2) Cell Culture. The cell line B16 (mouse melanocytes, obtained from ATCC and part of SimDerma platform) was maintained in supplemented DMEM medium containing 10% FBS and 1% antibiotics penicillin/streptomycin (DMEM complete medium) at 37° C. in a humidified atmosphere of 5% CO2.
Measurements of Tyrosinase Activity: To measure the tyrosinase activity of the cells, B16 cells were treated for 3 days with several doses of the compounds (cannabigerol (1) or kojic acid), then lysed by incubation at 4° C. for 30 min in lysis buffer (20 mM sodium phosphate, pH 6.8, 1% Triton X-100, 1 mM PMSF, 1 mM EDTA) containing protease inhibitors cocktail. The lysates were centrifuged at 15.000 g for 10 min to obtain the supernatant as the source of tyrosinase. The reaction mixture contained 20 mM phosphate buffer, pH 6.8, 1.25 mM L-dopa (Sigma-Aldrich). After incubation at 37° C. for 30 min, dopachrome formation was monitored by measuring absorbance at a wavelength of 475 nm in a microplate reader (TriStar LB 941 Berthold Technologies, GmbH & Co. KG). Kojic acid was used as a positive control.

B16 melanoma cells = test: Determination of melanin content in B16 cells; assay type: cell-based, mouse
Experimental: as §2, §1

Compound | cytotoxic effects (B16 cells) | inhibition of tyrosinase compared with positive control (tyrosinase; 1 μg/ml cannabigerol vs 2 mM kojic acid, B16 cells, 3 days) | doses at which tyrosinase activity was inhibited (tyrosinase; B16 cells treated for 3 days) [µg/mL] | inhibition compared with reference inhibitor in the used test systems (tyrosinase activity, melanin production; FIG. 2 and 3) (tyrosinase; B16 melanocytes) | melanin production, dose dependence (B16 melanoma cells) | inhibition at 1 µg/mL (B16 melanoma cells; Mus musculus, B16, 72 h, read-out: inhibition of melanin production) [%] | reduction of melanin production (B16 melanoma cells; 2 mM, B16 cells, 3 days)
CCCCCc1cc(O)c(C/C=C(\C)CCC=C(C)C)c(O)c1 [Cannabigerol (1), Cannabigerol] | no cytotoxic effects | as potent as the effect of 2 mM of kojic acid | ≥ 0.5 | stronger inhibition than the used reference inhibitor kojic acid | dose dependently prevented | ~30 | 
O=c1cc(CO)occ1O [kojic acid, reference compound] |  |  |  |  |  |  | approx. 20%
